Source: US7256042B2, “Process for making hepatocytes from pluripotent stem cells” (Geron Corporation, priority 2000, dated 2007)
Read-outs that look alike come from different tables or passages of the source.

Columns and labels:
[1] = system: hES cell derived embryoid bodies; assay: Comparison of potential hepatocyte differentiation agents; type: cell-based, human; details: for Induction of hepatocyte phenotype: EBs 4 days in suspension, replated on plates coated with collagenase 1, cultured with each compound for 6 days, analogs at 5 mM; for Effect on hepatocyte differentiation (in words): concentration of 5 mM; on Induction of hepatocyte phenotype: key: +: Causes hepatocyte differentiation and selective elimination of other cell types; −: No inductive effect; ±: Mild inductive effect; may allow growth or survival of other cell types
Experimental: (§1) The effect of sodium butyrate was compared with other potential hepatocyte differentiation agents in a similar protocol. Embryoid bodies were cultured in suspension for 4 days, and then replated on plates coated with collagenase 1. The cells were then cultured in the presence of each compound for 6 days.

[2] = system: hES cell derived embryoid body cells; assay: Immunocytochemistry of embryoid body cells cultured 4 days after plating (Example 1)
Experimental: Confluent monolayer cultures of hES cells on or off feeder cells were harvested by incubating in collagenase for 15-20 min, following which the cells are scraped from the plate. The cells were then dissociated into clusters and plated in non-adherent cell culture plates (Costar) in a medium composed of 80% KO DMEM (Gibco) and 20% non-heat-inactivated FBS (Hyclone), supplemented with 1% non-essential amino acids, 1 mM glutamine, 0.1 mM β-mercaptoethanol. The cells were seeded at a 1:2 ratio in 2 mL medium per well (6 well plate). The EBs were fed every other day by the addition of 2 mL of medium per well. When the volume of medium exceeded 4 mL/well, the EBs were collected and resuspended in fresh medium. After 4-8 days in suspension, the EBs were plated onto a substrate and allowed to differentiate further.
(§2) The fixed cells were rinsed with PBS twice and blocked for 1 hour in 10% goat serum in PBS. They were then incubated in primary antibody diluted in 10% goat serum and PBS for 2 h. Antibody to albumin, alpha fetoprotein (AFP) (Sigma) and α1-antitrypsin (OEB Biosciences Inc.) were diluted at 1:500, cytokeratin, 8, 18 and 19, desmin, (Neomarkers), vimentin (Dako) and SMA (Sigma) were diluted at 1:200. Cells were then washed 3 times with PBS and incubated in secondary antibody, which was FITC-conjugated anti-mouse IgG diluted 1:100 and Hoechst HH33258 (Sigma) at 1:1000 in 5% goat serum in PBS, and incubated for 1 h. The stained cells were then washed 3 times in PBS, and mounted in Vectashield™ (Vector Labs). Images were taken at 10× and 40× using a Nikon Labophot™ equipped with epifluorescence and a spot CCD camera.
Embryoid bodies (EB) were prepared as described in the preceding section. After 5 days in suspension culture, they were harvested and plated on Growth Factor Reduced Matrigel® coated plates and in chamber slides (Nunc). One of the following three conditions was used in parallel: • medium containing 20% fetal bovine serum (FBS); • medium containing 20% FBS and 5 mM sodium butyrate (Sigma); • medium containing 20% FBS, 0.5% DMSO (ATCC), 4 μM dexamethazone (Sigma), 150 ng/ml insulin, 10 ng/ml EGF, 600 nM glucagon (Sigma). In each case, the medium was exchanged every day, and cells were fixed for immunocytochemistry on day 4 after plating.

[3] = system: H9 hES cells; assay: Differentiation of hES cells in feeder-free culture, morphology (Example 5); type: cell-based, human; details: feeder-free H9 hES cells on laminin, SR medium + 5 mM sodium butyrate, about six days after treatment
Experimental: Undifferentiated hES colonies were passaged continuously in feeder-free conditions as follows. Cultures were incubated in 1 mg/mL collagenase for about 5 minutes at 37° C. The cells were then harvested by scraping the cells off the surface and dissociating them into small clumps. Cells were split at a 1:3 or 1:6 ratio, ˜55,000 cells/mL (17,000 cells/cm^2). The day after replating, colonies of undifferentiated cells could again be identified. Single cells in between the colonies were differentiated. Over the next few days, the undifferentiated cells were seen to proliferate and the colonies became large and compact. The differentiated cells in between the colonies also became more compact. The cells became confluent after 4-7 days of being fed daily with conditioned media. When the cells reached confluence, they were split once more.
For this example, the H9 hES cells (p30+5) were maintained in feeder-free conditions for 30 days (5 passages) before differentiation. The undifferentiated cells were maintained on laminin and fed with MEF-conditioned medium, as described elsewhere in this disclosure. To induce differentiation, the conditioned medium was replaced with SR medium (without supplemental bFGF) containing 5 mM sodium butyrate.

[4] = system: hES cell derived embryoid bodies; assay: Phenotype of embryoid body cells after 6 days with n-butyrate: immunocytochemistry, glycogen (PAS), BrdU (Example 2); type: cell-based, human; details: EBs on Matrigel, 20% FBS + 5 mM sodium n-butyrate
Experimental: Cells were grown on chamber slides in the indicated growth medium, and labeled with 10 μM BrdU for 24 h. Cells were then fixed with 3:1 methanol: acetic acid for 30 minutes, and air-dried overnight in the dark. The fixed cells were rinsed once in PBS, and denatured in 0.07 N NaOH for 2 min followed by quick rinses in PBS pH 8.5 and pH7.4 several times. They were then blocked using 1.5% goat serum (Vector Labs) for 15 min, and incubated with anti BrdU antibody (Sigma) diluted 1:500 in 1.5% goat serum and 0.05% Tween™ 20 for 2 h. The samples were washed thrice in PBS, and then incubated with secondary antibody, which was biotinylated goat anti-mouse immunoglobulin (Vector Labs), at 10 μg/mL diluted in 1.5% horse serum for 30 min. […] Hoechst HO33258 stain (bisbenzimide, Sigma Cat. No. B2883) was mixed into the streptavidin solution at 2.5uM final concentration to stain all the nuclei.
The medium was changed daily or every other day. There was a lot of cell death on day 1 followed by less cell death on the subsequent days.
On the sixth day after plating in the differentiation agent, the cells were analyzed for expression of markers by RT-PCR and immunocytochemistry, following the procedures outlined earlier. Glycogen content in these cells was determined using periodic acid Schiff stain. The number of cells in S phase of cell cycle was determined by incubating the cells with 10 μM BrdU on day 5 after plating, and subsequently staining with anti-BrdU antibody 24 hours later.

[5] = system: hES cells; assay: Phenotype of hepatocyte lineage cells made using sodium n-butyrate or Trichostatin A; type: cell-based, human; details: 5 mM sodium n-butyrate; 100 nM Trichostatin A
Experimental: as §1
At 75-100 nM, Trichostatin A appeared to both induce hepatocyte differentiation and select against survival of other cell types.

[6] = system: Human ES cell derived embryoid bodies; details: 5 mM Na butyrate, with or without 1% DMSO, day 7
[7] = system: hES cells; assay: Direct differentiation Protocol 7, cell morphology (FIG. 5); type: cell-based, human; details: 4 days in SR medium containing butyrate
Experimental: hES cells undergo the Direct Differentiation protocol detailed earlier, making the adjustments to culture conditions shown in Table 12. Hepatocyte Culture Medium is purchased from Clonetics; Strom's Medium is prepared as described in Runge et al., Biochem. Biophys. Res. Commun. 265:376, 1999. The cell populations obtained are assessed by immunocytochemistry and enzyme activity.
Left column: 10×magnification; Right column: 40×magnification. By 4 days in the presence of butyrate, more than 80% of cells in the culture are large in diameter, containing large nuclei and granular cytoplasm (Row A). After 5 days in SR medium, the cells were switched to HCM. Two days later, many cells are multinucleated, and have a large polygonal shape (Row B). By 4 days in HCM, multinucleated polygonal cells are common, and have a darker cytosol (Row C), by which criteria they resemble freshly isolated human adult hepatocytes (Row D) or fetal hepatocytes (Row E).

[8] = system: undifferentiated hES cells; assay: Direct differentiation of hES cells without embryoid bodies, immunocytochemistry (Example 7); type: cell-based, human; details: 1% DMSO 4 days, then 2.5% Na-butyrate 6 days
From the text: The undifferentiated hES cells were maintained in feeder-free conditions (on Matrigel® in MEF-CM). The strategy was to initiate a global differentiation process by adding the hepatocyte maturation factors DMSO or retanoic acid (RA) to a subconfluent culture. The cells are then induced to form hepatocyte-like cells by the addition of Na-butyrate.
The hES cells were maintained in undifferentiated culture conditions for 2-3 days after splitting. At this time, the cells were 50-60% confluent and the medium was exchanged with unconditioned SR medium containing 1% DMSO. The cultures were fed daily with SR medium for 4 days and then exchanged into unconditioned SR medium containing 2.5% Na-butyrate. The cultures were fed daily with this medium for 6 days; at which time one half of the cultures were evaluated by immunocytochemistry. The other half of the cultures were harvested with trypsin and replated onto collagen, to further promote enrichment for hepatocyte lineage cells. Immunocytochemistry was then performed on the following day.

[9] = system: EBs generated from hES cells; details: 20% FBS + 5 mM Na-butyrate, with or without 1% DMSO, 6 days
Experimental: as §2
EBs were generated from hES cells in feeder-free conditions. After 4 days in suspension, the EBs were plated in 20% FBS medium supplemented with 5 mM Na-butyrate or 5 mM Na-butyrate and 1% DMSO. The EBs were plated on the following matrices: • 1. collagen I (0.03 mg/mL coated overnight at 37° C.) • 2. growth factor reduced Matrigel® (1:10, coated for 1 h at room temp) • 3. gelatin (1% coated for 2 h at 37° C.)
After 6 days in Na-butyrate the cells were evaluated morphologically and using immunocytochemistry for hepatocyte markers.

[10] = EBs on Growth Factor Reduced Matrigel, day 4, 20% FBS + 5 mM sodium butyrate, or 20% FBS + 0.5% DMSO + dexamethazone, insulin, EGF, glucagon
[11] = Trypsinization and replating onto collagen, stained the following day

CCCCCC(=O)O [Caproic acid]
Induction of hepatocyte phenotype [1]: −

CC(C)C(=O)O [Isobutyric acid]
Induction of hepatocyte phenotype [1]: ± | Effect on hepatocyte differentiation (in words) ([1]; 6 days): effective in causing hepatocyte differentiation

[Cl-].[Na+] [NaCl]
Effect on hepatocyte differentiation (in words) ([1]; 6 days): no effect

CCC(=O)O [Propionic acid]
Effect on hepatocyte differentiation (in words) ([1]; 6 days): effective in causing hepatocyte differentiation

CCCC(=O)[O-].[Na+] [Sodium n-butyrate]
Cell survival and morphology (in words) ([2]; 20% FBS + 5 mM sodium butyrate, 1 day after plating): fairly homogenous population of cells survived | AFP, cells showing positive staining [2, 10]: did not express AFP | Albumin, percentage of cells showing positive staining [2, 10]: about 30% | CK8, percentage of cells showing positive staining [2, 10]: 100% + ve | CK18, percentage of cells showing positive staining [2, 10]: 100% + ve | CK19, percentage of cells showing positive staining [2, 10]: 100% + ve | SMA, percentage of cells showing positive staining [2, 10]: <1% + ve | Vimentin, percentage of cells showing positive staining [2, 10]: 100% + ve | α1-antitrypsin, percentage of cells showing positive staining [2, 10]: >60% + ve | Albumin, percentage of cells showing positive staining ([2]; EBs on Growth Factor Reduced Matrigel, day 4, 20% FBS + 5 mM sodium butyrate, or 20% FBS + 0.5% DMSO + dexamethazone, insulin, EGF, glucagon, listed as Na butyrate): 30% + ve* | Cultured embryoid body derived cells released from the substrate into the medium ([2]; first day of culture with the differentiation agent): about 90% | Cell morphology (in words) [3]: contained many patches of hepatocyte-like cells | Albumin, % positive cells ([4]; day 6): 55% | CK8, % positive cells ([4]; day 6): 100% | CK18, % positive cells ([4]; day 6): 100% | CK19, % positive cells ([4]; day 6): 100% | Desmin, % positive cells ([4]; day 6): 0% | Glycogen staining (Periodic Acid Schiff), % positive cells ([4]; day 6): 60% | α1-antitrypsin, % positive cells ([4]; day 6): 90% | α-fetoprotein, % positive cells ([4]; day 6): 0% | BrdU staining, % positive cells ([4]; 10 μM BrdU on day 5, stained 24 hours later): 16% | Effect on hepatocyte differentiation (in words) ([1]; 6 days): equally effective | CK18, positive cells [5]: 100% | CK19, positive cells [5]: 100% | Glycogen staining, positive cells [5]: >60% | albumin, positive cells [5]: 62% | α1-antitrypsin, positive cells [5]: 90% | α-fetoprotein, positive cells [5]: 0% | Albumin, percentage of cells staining ([6]; Gelatin coated plates): 56% | CK18, percentage of cells staining ([6]; Gelatin coated plates): 100% | CK19, percentage of cells staining ([6]; Gelatin coated plates): 100% | Glycogen, percentage of cells staining ([6]; Gelatin coated plates): >60% | α1-antitrypsin, percentage of cells staining ([6]; Gelatin coated plates): >90% | α-fetoprotein, percentage of cells staining ([6]; Gelatin coated plates): 0 | Albumin, percentage of cells staining ([6]; Matrigel coated plates): 50% | CK18, percentage of cells staining ([6]; Matrigel coated plates): 100% | CK19, percentage of cells staining ([6]; Matrigel coated plates): 100% | Glycogen, percentage of cells staining ([6]; Matrigel coated plates): >60% | α1-antitrypsin, percentage of cells staining ([6]; Matrigel coated plates): >90% | α-fetoprotein, percentage of cells staining ([6]; Matrigel coated plates): 0 | Cells large in diameter, containing large nuclei and granular cytoplasm ([7]; listed as butyrate): more than 80% | Cells large in diameter, containing large nuclei and granular cytoplasm ([7]; listed as sodium n-butyrate): More than 80% | Cytokeratin 8, % positive ([8]; No trypsinization): >80% | Cytokeratin 18, % positive ([8]; No trypsinization): >80% | Cytokeratin 19, % positive ([8]; No trypsinization): >80% | albumin, % positive ([8]; No trypsinization): 11% | glycogen, % positive ([8]; No trypsinization): 0% | α1-antitrypsin, % positive ([8]; No trypsinization): >80% | α-fetoprotein, % positive ([8]; No trypsinization): 0% | Cytokeratin 8, % positive [8, 11]: 45% | Cytokeratin 18, % positive [8, 11]: 30% | Cytokeratin 19, % positive [8, 11]: 30% | albumin, % positive [8, 11]: 63% | glycogen, % positive [8, 11]: >50% | α1-antitrypsin, % positive [8, 11]: >80% | α-fetoprotein, % positive [8, 11]: 0% | Cytokeratin 18, percentage of cells positive ([9]; Collagen I): 100% | Cytokeratin 19, percentage of cells positive ([9]; Collagen I): 100% | Glycogen, percentage of cells positive ([9]; Collagen I): >60% | albumin, percentage of cells positive ([9]; Collagen I): 79% | α1-antitrypsin, percentage of cells positive ([9]; Collagen I): >90% | α-fetoprotein, percentage of cells positive ([9]; Collagen I): 0 | Cytokeratin 18, percentage of cells positive ([9]; Gelatin): 100% | Cytokeratin 19, percentage of cells positive ([9]; Gelatin): 100% | Glycogen, percentage of cells positive ([9]; Gelatin): >60% | albumin, percentage of cells positive ([9]; Gelatin): 50% | α1-antitrypsin, percentage of cells positive ([9]; Gelatin): >90% | α-fetoprotein, percentage of cells positive ([9]; Gelatin): 0 | Cytokeratin 18, percentage of cells positive ([9]; Matrigel): 100% | Cytokeratin 19, percentage of cells positive ([9]; Matrigel): 100% | Glycogen, percentage of cells positive ([9]; Matrigel): >60% | albumin, percentage of cells positive ([9]; Matrigel): 56% | α1-antitrypsin, percentage of cells positive ([9]; Matrigel): >90% | α-fetoprotein, percentage of cells positive ([9]; Matrigel): 0

CC(/C=C/C(=O)NO)=C\[C@@H](C)C(=O)c1ccc(N(C)C)cc1 [Trichostatin A]
Concentration range found ineffective ([1]; EB-derived cells, 6 days): 10 to 50 nM | Concentration range found to be toxic to cells ([1]; EB-derived cells, 6 days): 2500 to 100000 nM | Concentration range that induces hepatocyte differentiation and selects against survival of other cell types ([1]; EB-derived cells, 6 days): 75 to 100 nM | Induction of hepatocyte phenotype [1]: + | CK18, positive cells [5]: >70% | CK19, positive cells [5]: >90% | Glycogen staining, positive cells [5]: >50% | albumin, positive cells [5]: 41% | α1-antitrypsin, positive cells [5]: 81%

CCCCC(=O)O [Valeric acid]
Induction of hepatocyte phenotype [1]: −

CCCC(=O)O [n-Butyric Acid]
Effect on hepatocyte differentiation (in words) ([1]; 6 days): equally effective

CCC(O)C(=O)O (stereo not drawn) [α-hydroxybutyric acid]
Induction of hepatocyte phenotype [1]: −

CC(O)CC(=O)O (stereo not drawn) [β-hydroxybutyric acid]
Induction of hepatocyte phenotype [1]: −
